Data on 2 molecules can be found in article PMC10987128, “A Natural Small Molecule Mitigates Kidney Fibrosis by Targeting Cdc42‐mediated GSK‐3β/β‐catenin Signaling” (Advanced Science, 2024).

The target in test [1] is T1, Cdc42 (cell division cycle 42) (Homo sapiens, UniProt P60953).
T1 construct: recombinant Cdc42 protein (230-00660-100, RayBio)
The experiment in a line: SPR (Biacore 8K, Cdc42 immobilized on CM5 chip), positive control. It counts as binding. The source says: SPR (Biacore 8K, Cdc42 immobilized on CM5 chip), positive control on Cdc42 (cell division cycle 42) | We used ZCL278, a well‐known Cdc42 binding compound, as a positive control in SPR experiments
On the technique in general: Surface plasmon resonance follows binding to a sensor surface in real time, without labels.

Test [2] has as its target T1, Cdc42 (cell division cycle 42). The experiment in a line: SPR (Biacore 8K, Cdc42 immobilized on CM5 chip); supported by CETSA and TPP in NRK-49F cells. It counts as binding.

T1 sequence (P60953 1-188): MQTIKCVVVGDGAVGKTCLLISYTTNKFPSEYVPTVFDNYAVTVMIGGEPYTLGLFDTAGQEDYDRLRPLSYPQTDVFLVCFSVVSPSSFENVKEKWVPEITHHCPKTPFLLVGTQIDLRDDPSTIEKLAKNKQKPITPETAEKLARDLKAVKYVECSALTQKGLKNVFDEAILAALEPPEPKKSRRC

Usually Kd stands for the constant that tells how readily two partners part at equilibrium. Read a high Kd as lower affinity. The molecule `Cc1cc(C)nc(NS(=O)(=O)c2ccc(NC(=S)NC(=O)COc3ccc(Br)cc3Cl)cc2)n1` [ZCL278] showed a Kd in test [1] of 18.6 µM.

As to `C=C(C)[C@]12C[C@@H](C)[C@]34OC5(CCCCCCC[C@H](C)[C@@H]6[C@@H]3[C@@](O)(C(=O)[C@@]6(C)O)[C@H](O)[C@@]3(CO)O[C@H]3[C@H]4[C@H]1O5)O2` [compound 15, daphnepedunin A], binding in test [2] was put at a Kd of 15.6 µM.
